System: animals receiving CPR
Assay: Animal studies with administration of an anesthetic gas during CPR
Assay type: in vivo
Details: compared with other inhaled anesthetics
Source text: In one embodiment, the administered anesthetic includes sevoflurane. Other volatile anesthetics that may be administered include: halothane, enflurane, and desflurane isoflurane, xenon, helium and the like. […] These anesthetics may provide protective effects when administered before or during CPR and help stabilize the brain, heart, or body to help the heart, brain, and/or body to stay fresh. It is believed that some anesthetic agents provide these effects by attenuating the mitochondrial membrane permeability, or manipulating and protecting the mitochondrial membrane pores. It is believed that during ischemia, permeability pores in the mitochondria cell membrane open up causing the mitochondria to swell. In such a condition, the mitochondria are destroyed or damaged when blood flow is reestablished. The anesthetic may help protects against such damage, especially if the anesthetic is delivered or delivery is initiated early in reestablishing blood flow. Some volatile anesthetics like Xenon provide anesthesia by non-competitive inhibit N-methyl-D-aspartate receptors. Due to the fact that reperfusion injury occurs very early during the resuscitation efforts (within 2-3 minutes from the imitation of CPR) it is preferable that the anesthetic is delivered or delivery is initiated within the first 5 minutes of CPR efforts. […]

cardiodepressant effects: less of cardiodepressant effects
Structure (SMILES): FCOC(C(F)(F)F)C(F)(F)F [Sevoflurane, sevoflurane]
protection from reperfusion injury: significant protection from reperfusion injury

— patent publication US20140363391A1, “SYSTEM AND METHOD FOR ADMINISTERING POLOXAMERS AND ANESTHETICS WHILE PERFORMING CPR AND MINIMIZING REPERFUSION INJURY” (priority 2013, published 2014)
